PubChem BioAssay AID256 (DTP/NCI, 2004)
“And” between values parts separate entries of the source, which are not always exact repeats. Equal entries are not always repeated. Inconclusive results and toxic doses are left out.

Test system: CD2F1 mice, L1210 leukemia ip, survival T/C
Test: NCI In Vivo Anticancer Drug Screen. Data for tumor model L1210 Leukemia (intraperitoneal) in CD2F1 (CDF1) mice
Details: higher = longer survival
Method in brief: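 Transplantable tumor in mice; compound-treated vs vehicle-treated groups. Read-out = treated/control ratio of the measured endpoint.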

[1] = endpoint: mean survival time, dose: 100.0 mg/kg/injection, schedule: Q04DX002 (ip), vehicle: saline with Tween-80
[2] = endpoint: mean survival time, dose: 200.0 mg/kg/injection, schedule: Q04DX002 (ip), vehicle: saline with Tween-80
[3] = endpoint: mean survival time, dose: 400.0 mg/kg/injection, schedule: Q04DX002 (ip), vehicle: saline with Tween-80
[4] = endpoint: mean survival time, dose: 100.0 mg/kg/injection, schedule: Q01DX009 (ip), vehicle: saline with Tween-80
[5] = endpoint: mean survival time, dose: 200.0 mg/kg/injection, schedule: Q01DX009 (ip), vehicle: saline with Tween-80
[6] = endpoint: mean survival time, dose: 400.0 mg/kg/injection, schedule: Q01DX009 (ip), vehicle: saline with Tween-80
[7] = endpoint: mean survival time, dose: 50.0 mg/kg/injection, schedule: Q01DX009 (ip), vehicle: saline with Tween-80
[8] = endpoint: mean survival time, dose: 100.0 mg/kg/injection, schedule: Q04DX003 (ip), vehicle: saline with Tween-80
[9] = endpoint: mean survival time, dose: 200.0 mg/kg/injection, schedule: Q04DX003 (ip), vehicle: saline with Tween-80
[10] = endpoint: mean survival time, dose: 100.0 mg/kg/injection, schedule: Q01DX001 (ip), vehicle: saline with Tween-80
[11] = endpoint: mean survival time, dose: 200.0 mg/kg/injection, schedule: Q01DX001 (ip), vehicle: saline with Tween-80
[12] = endpoint: mean survival time, dose: 400.0 mg/kg/injection, schedule: Q01DX001 (ip), vehicle: saline with Tween-80
[13] = endpoint: mean survival time, dose: 400.0 mg/kg/injection, schedule: Q04DX003 (ip), vehicle: saline with Tween-80
[14] = endpoint: mean survival time, dose: 100.0 mg/kg/injection, schedule: Q01DX009 (ip), vehicle: Klucel (hydroxypropylcellulose) (HPC)
[15] = endpoint: mean survival time, dose: 200.0 mg/kg/injection, schedule: Q01DX009 (ip), vehicle: Klucel (hydroxypropylcellulose) (HPC)
[16] = endpoint: mean survival time, dose: 100.0 mg/kg/injection, schedule: Q04DX003 (ip), vehicle: saline sonified
[17] = endpoint: mean survival time, dose: 200.0 mg/kg/injection, schedule: Q04DX003 (ip), vehicle: saline sonified
[18] = endpoint: mean survival time, dose: 400.0 mg/kg/injection, schedule: Q04DX003 (ip), vehicle: saline sonified
[19] = endpoint: mean survival time, dose: 400.0 mg/kg/injection, schedule: Q01DX009 (ip), vehicle: Klucel (hydroxypropylcellulose) (HPC)

SMILES: CC1(C)N=C(N)N=C(N)N1c1cccc(Cl)c1Cl
- T/C (endpoint: mean survival time, dose: 5.0 mg/kg/injection, schedule: Q04DX003 (ip), vehicle: saline): 105 % of control
- T/C (endpoint: mean survival time, dose: 10.0 mg/kg/injection, schedule: Q04DX003 (ip), vehicle: saline): 112 % of control
- T/C (endpoint: mean survival time, dose: 20.0 mg/kg/injection, schedule: Q04DX003 (ip), vehicle: saline): 115 % of control

SMILES: COc1ccc([N+](=O)[O-])cc1NC(=O)Nc1ccccc1Cl
- T/C [1]: 86 % of control
- T/C [2]: 93 % of control
- T/C [3]: 104 % of control

SMILES: CC1(Br)OC(=O)CC1Br (configuration not stated)
- T/C [1]: 106 % of control
- T/C [2]: 91 % of control

SMILES: O=C(Cn1ccc(=O)[nH]c1=O)c1cc2ccccc2[nH]1
- T/C [1]: 93 % of control
- T/C [2]: 93 % of control
- T/C [3]: 93 % of control

SMILES: O=C(c1ccccc1)c1cccc(C(Br)Br)c1
- T/C [4]: 95 % of control
- T/C [5]: 93 % of control
- T/C [6]: 101 % of control

SMILES: C=CC1CN2CCC1CC2C(O)c1ccnc2ccc(OC)cc12 (configuration not stated) (tested in a mixture with another compound)
- T/C [7]: 92 % of control and 95 % of control
- T/C (endpoint: mean survival time, dose: 100.0 mg/kg/injection, schedule: Q01DX001 (ip), vehicle: saline): 95 % of control and 89 % of control
- T/C [4]: 103 % of control and 98 % of control
- T/C [8]: 99 % of control and 93 % of control
- T/C (endpoint: mean survival time, dose: 200.0 mg/kg/injection, schedule: Q01DX001 (ip), vehicle: saline): 96 % of control
- T/C [5]: 88 % of control and 95 % of control
- T/C [9]: 92 % of control and 90 % of control
- T/C (endpoint: mean survival time, dose: 400.0 mg/kg/injection, schedule: Q01DX001 (ip), vehicle: saline): 89 % of control

SMILES: COc1ccc(NC(C)=O)c(O)c1OC
- T/C [10]: 95 % of control
- T/C [1]: 103 % of control
- T/C [11]: 92 % of control
- T/C [2]: 106 % of control
- T/C [12]: 95 % of control
- T/C [3]: 98 % of control

SMILES: NS(=O)(=O)c1cccc([N+](=O)[O-])c1
- T/C [10]: 95 % of control
- T/C [11]: 92 % of control
- T/C [12]: 97 % of control

SMILES: COc1ccc(-c2cc(-c3ccccc3)n[nH]2)cc1
- T/C [8]: 93 % of control
- T/C [9]: 97 % of control
- T/C [13]: 93 % of control

SMILES: Cn1c(=S)sc2nc3ccccc3n2c1=S
- T/C (endpoint: median survival time, dose: 15.0 mg/kg/injection, schedule: Q01DX005 (ip), vehicle: saline with Tween-80): 103 % of control
- T/C (endpoint: median survival time, dose: 30.0 mg/kg/injection, schedule: Q01DX005 (ip), vehicle: saline with Tween-80): 107 % of control
- T/C (endpoint: median survival time, dose: 60.0 mg/kg/injection, schedule: Q01DX005 (ip), vehicle: saline with Tween-80): 111 % of control
- T/C (endpoint: median survival time, dose: 120.0 mg/kg/injection, schedule: Q01DX005 (ip), vehicle: saline with Tween-80): 107 % of control
- T/C (endpoint: median survival time, dose: 240.0 mg/kg/injection, schedule: Q01DX005 (ip), vehicle: saline with Tween-80): 107 % of control

SMILES: CC(=O)OC1CCC2(C)C(=CC=C3C2CCC2(C)C3CCC2C(C)/C=C/C(C)C(C)C)C1 (configuration not stated)
- T/C (endpoint: mean survival time, dose: 50.0 mg/kg/injection, schedule: Q01DX009 (ip), vehicle: Klucel (hydroxypropylcellulose) (HPC)): 89 % of control
- T/C [14]: 101 % of control
- T/C [15]: 93 % of control

SMILES: CSCCC(NC(=O)c1ccccc1)C(=O)O (configuration not stated)
- T/C [4]: 91 % of control
- T/C [5]: 87 % of control
- T/C [6]: 90 % of control

SMILES: O=C1CCC(=O)N1CC(O)COc1ccc(Cl)cc1 (configuration not stated)
- T/C [8]: 95 % of control
- T/C [9]: 98 % of control
- T/C [13]: 95 % of control

SMILES: Cc1ccccc1S(=O)(=O)N(C)C
- T/C [16]: 97 % of control
- T/C [17]: 94 % of control
- T/C [18]: 92 % of control

SMILES: CN(C)c1ccc(CN2CCCN(Cc3ccc(N(C)C)cc3)C2c2ccncc2)cc1
- T/C [4]: 94 % of control
- T/C [8]: 104 % of control
- T/C [5]: 95 % of control
- T/C [9]: 103 % of control
- T/C [6]: 95 % of control
- T/C [13]: 103 % of control

SMILES: CC1=C(C)C(=O)O[C@@H]([C@](C)(O)[C@]2(O)CC[C@@]3(O)[C@@H]4C[C@H]5O[C@]56CC=CC(=O)[C@]6(C)[C@H]4CC[C@]23C)C1
- T/C (endpoint: mean survival time, dose: 3.12 mg/kg/injection, schedule: Q01DX009 (ip), vehicle: saline with Tween-80): 104 % of control
- T/C (endpoint: mean survival time, dose: 3.12 mg/kg/injection, schedule: Q01DX009 (ip), vehicle: saline): 112 % of control
- T/C (endpoint: mean survival time, dose: 6.25 mg/kg/injection, schedule: Q01DX009 (ip), vehicle: saline with Tween-80): 105 % of control
- T/C (endpoint: mean survival time, dose: 6.25 mg/kg/injection, schedule: Q01DX009 (ip), vehicle: saline): 123 % of control
- T/C (endpoint: mean survival time, dose: 12.5 mg/kg/injection, schedule: Q01DX009 (ip), vehicle: saline): 112 % of control
- T/C (endpoint: mean survival time, dose: 25.0 mg/kg/injection, schedule: Q01DX009 (ip), vehicle: saline with Tween-80): 107 % of control
- T/C (endpoint: mean survival time, dose: 25.0 mg/kg/injection, schedule: Q01DX009 (ip), vehicle: saline): 110 % of control
- T/C [7]: 115 % of control
- T/C (endpoint: mean survival time, dose: 50.0 mg/kg/injection, schedule: Q01DX009 (ip), vehicle: saline): 98 % of control
- T/C [4]: 107 % of control
- T/C (endpoint: mean survival time, dose: 100.0 mg/kg/injection, schedule: Q01DX009 (ip), vehicle: saline): 93 % of control

SMILES: COC(=O)CC(CC(=O)c1ccccc1)c1ccccc1 (configuration not stated)
- T/C (endpoint: mean survival time, dose: 50.0 mg/kg/injection, schedule: Q01DX009 (ip), vehicle: distilled water + Tween-80): 94 % of control
- T/C [7]: 95 % of control and 98 % of control
- T/C (endpoint: mean survival time, dose: 100.0 mg/kg/injection, schedule: Q01DX009 (ip), vehicle: distilled water + Tween-80): 90 % of control
- T/C [4]: 100 % of control and 106 % of control
- T/C (endpoint: mean survival time, dose: 200.0 mg/kg/injection, schedule: Q01DX009 (ip), vehicle: distilled water + Tween-80): 90 % of control
- T/C [5]: 97 % of control and 100 % of control
- T/C (endpoint: mean survival time, dose: 400.0 mg/kg/injection, schedule: Q01DX009 (ip), vehicle: distilled water + Tween-80): 90 % of control
- T/C [6]: 97 % of control and 98 % of control

SMILES: CC(=O)N(C)c1ccc(NC(=O)Nc2ccc(C)cc2[N+](=O)[O-])cc1
- T/C [14]: 95 % of control
- T/C [15]: 92 % of control
- T/C [19]: 92 % of control

SMILES: CCCN1OC2CC/C=C\CCC2C1c1ccccc1 (configuration not stated)
- T/C [14]: 100 % of control
- T/C (endpoint: mean survival time, dose: 100.0 mg/kg/injection, schedule: Q04DX003 (ip), vehicle: other): 101 % of control
- T/C [15]: 100 % of control
- T/C (endpoint: mean survival time, dose: 200.0 mg/kg/injection, schedule: Q04DX003 (ip), vehicle: other): 107 % of control
- T/C [19]: 88 % of control
- T/C (endpoint: mean survival time, dose: 400.0 mg/kg/injection, schedule: Q04DX003 (ip), vehicle: other): 106 % of control

SMILES: ClCCCCOCCCCCl
- T/C [4]: 95 % of control
- T/C [8]: 97 % of control
- T/C [5]: 95 % of control
- T/C [9]: 95 % of control
- T/C [6]: 117 % of control
- T/C [13]: 97 % of control

SMILES: NS(=O)(=O)c1cccc(C(=O)O)c1
- T/C [10]: 98 % of control
- T/C [11]: 94 % of control
- T/C [12]: 98 % of control

SMILES: [Br][Pt+2][Br].[NH-]c1ccccc1F.[NH-]c1ccccc1F
- T/C (endpoint: mean survival time, dose: 3.13 mg/kg/injection, schedule: Q04DX003 (ip), vehicle: distilled water + Tween-80): 104 % of control
- T/C (endpoint: mean survival time, dose: 6.25 mg/kg/injection, schedule: Q04DX003 (ip), vehicle: distilled water + Tween-80): 104 % of control
- T/C (endpoint: mean survival time, dose: 12.5 mg/kg/injection, schedule: Q04DX003 (ip), vehicle: distilled water + Tween-80): 108 % of control
- T/C (endpoint: mean survival time, dose: 25.0 mg/kg/injection, schedule: Q04DX003 (ip), vehicle: distilled water + Tween-80): 108 % of control
- T/C (endpoint: mean survival time, dose: 50.0 mg/kg/injection, schedule: Q04DX003 (ip), vehicle: distilled water + Tween-80): 101 % of control
- T/C (endpoint: mean survival time, dose: 100.0 mg/kg/injection, schedule: Q04DX003 (ip), vehicle: distilled water + Tween-80): 93 % of control

SMILES: CCCCCCCCCCCCCCCC(=O)OCC1OC(N2C=CC(=O)CC2=O)C(O)C1O (configuration not stated)
- T/C (endpoint: median survival time, dose: 13.0 mg/kg/injection, schedule: Q01DX009 (ip), vehicle: saline + alcohol): 174 % of control
- T/C (endpoint: median survival time, dose: 20.0 mg/kg/injection, schedule: Q01DX009 (ip), vehicle: saline + alcohol): 188 % of control
- T/C (endpoint: median survival time, dose: 30.0 mg/kg/injection, schedule: Q01DX009 (ip), vehicle: saline + alcohol): 174 % of control

SMILES: O=c1cnn(C2OC(CO)C(O)C2O)c(=S)[nH]1 (configuration not stated)
- T/C [4]: 123 % of control
- T/C [16]: 102 % of control
- T/C [5]: 107 % of control
- T/C [17]: 104 % of control
- T/C [6]: 112 % of control
- T/C [18]: 96 % of control

SMILES: CCOc1ccc(/C=C2N=C(/C=C/c3ccccc3)OC\2=O)cc1
- T/C [1]: 91 % of control
- T/C [2]: 95 % of control
- T/C [3]: 91 % of control
